The values that follow come from US11992473B2, “Compositions and methods for diagnosis and treatment of conditions related to the quality of aging and longevity” (Epitracker, Inc., priority 2018, dated 2024).

Data set [1] deals with Peripheral blood mononuclear cells, B cells. Briefly: BioMAP Diversity PLUS BT system (T cell dependent B cell activation). It counts as cell-based, human. The following applies: BT system. The procedure:
(§1) This study examined activities of small molecules discovered in dolphin serum that had protective profiles against diseases of aging which can impact quality of life and longevity. These molecules were tested across 12 human primary cell-based systems as part of DiscoverX's BioMAP Diversity Plus program. These systems are designed to model complex human tissue and disease biology of the vasculature, skin, lung, and inflammatory tissues. Quantitative measurements of biomarker activities across this broad panel, along with comparative analysis of biological activities of known bioactive agents were used to predict and compare the efficacy and function of the four compounds. Compounds were tested at four concentrations (740 nm and 2.2, 6.7 and 20 μM).
(§2) BioMAP panels consist of human primary cell-based systems designed to model different aspects of the human body in an in vitro format. The 12 systems in the Diversity PLUS panel allow test agent characterization in an unbiased way across a broad set of systems modeling various human disease states. BioMAP systems are constructed with one or more primary cell types from healthy human donors, with stimuli (such as cytokines or growth factors) added to capture relevant signaling networks that naturally occur in human tissue or pathological conditions. Vascular biology is modeled in both a Th1 (3C system) and a Th2 (4H system) inflammatory environment, as well as in a Th1 inflammatory state specific to arterial smooth muscle cells (CASM3C system). Additional systems recapitulate aspects of the systemic immune response including monocyte-driven Th1 inflammation (LPS system) or T cell stimulation (SAg system), chronic Th1 inflammation driven by macrophage activation (lMphg system) and the T cell-dependent activation of B cells that occurs in germinal centers (BT system). The BE3C system (Th1) and the BF4T system (Th2) represent airway inflammation of the lung, while the MyoF system models myofibroblast-lung tissue remodeling. Lastly, skin biology is addressed in the KF3CT system modeling Th1 cutaneous inflammation and the HDF3CGF system modeling wound healing.
(§3) Each test agent generates a signature BioMAP profile that is created from the changes in protein biomarker readouts within individual system environments. Biomarker readouts (7-17 per system) are selected for therapeutic and biological relevance, are predictive for disease outcomes or specific drug effects and are validated using agents with known mechanism of action (MoA). Each readout is measured quantitatively by immune-based methods that detect protein (e.g., ELISA) or functional assays that measure proliferation and viability. BioMAP readouts are diverse and include cell surface receptors, cytokines, chemokines, matrix molecules and enzymes.
(§4) The Diversity PLUS panel allows test agent characterization in an unbiased way across a broad set of systems modeling various human disease states. These systems are designed to model complex human tissue and disease biology of the vasculature, skin, lung, and inflammatory tissues.
(§5) BioMAP systems are constructed with one or more primary cell types from healthy human donors, with stimuli (such as cytokines or growth factors) added to capture relevant signaling networks that naturally occur in human tissue or pathological conditions. Vascular biology is modeled in both a Th1 (3C system) and a Th2 (4H system) inflammatory environment, as well as in a Th1 inflammatory state specific to arterial smooth muscle cells (CASM3C system). Additional systems recapitulate aspects of the systemic immune response including monocyte-driven Th1 inflammation (LPS system) or T cell stimulation (SAg system), chronic Th1 inflammation driven by macrophage activation (lMphg system) and the T cell-dependent activation of B cells that occurs in germinal centers (BT system).

Data set [2] has as its system Venular endothelial cells, peripheral blood mononuclear cells. Nature of the data set: BioMAP Diversity PLUS LPS system (Th1 type chronic inflammation, monocyte activation). Conditions: for Significant log10 reduction compared to nontreated controls: Secreted prostaglandin E2 (PGE2): LPS system; for secretion of prostaglandin E2 (PGE2): human cell system mimicking T-cell and monocyte driven chronic inflammation and cardiovascular diseases (FIG. 4). The format is cell-based, human. The procedure:
as §1, §2, §3, §4, §5

Data set [3] has as its system Coronary artery smooth muscle cells. Nature of the data set: BioMAP Diversity PLUS CASM3C system (Th1 type vascular inflammation). It counts as cell-based, human. The procedure:
as §1, §2, §3, §4, §5

The subject of data set [4] is Dermal fibroblasts. Briefly: BioMAP Diversity PLUS HDF3CGF system (wound healing and matrix/tissue remodeling). The format is cell-based, human. Conditions: for decorin: fibrosis and chronic inflammation (FIG. 7). The procedure:
as §1, §2, §3, §4, §5

Data set [5] relates to Bronchial epithelial cells, dermal fibroblasts. Nature of the data set: BioMAP Diversity PLUS BF4T system (Th2 type lung inflammation). The format is cell-based, human. The procedure: as §1, §2
as §3, with “enzymes. In total, the Diversity PLUS panel contains 148 biomarker readouts that capture biological changes that occur within the physiological context of the particular BioMAP system. Specific BioMAP activities have been correlated to in vivo biology, and multiparameter BioMAP profiles have been used to distinguish compounds based on MoA and target selectivity across diverse physiological systems.” for “enzymes.”
(§6) The Diversity PLUS panel allows test agent characterization in an unbiased way across a broad set of systems modeling various human disease states. These systems are designed to model complex human tissue and disease biology of the vasculature, skin, lung, and inflammatory tissues. Quantitative measurements of 148 biomarker activities across this broad panel, along with comparative analysis of biological activities from known bioactive agents, were used to predict and compare the efficacy and function of each selected compound at four concentrations (740 nm and 2.2, 6.7 and 20 μM). […]

The test system of data set [6] is Lung fibroblasts. Nature of the data set: BioMAP Diversity PLUS MyoF system (myofibroblast differentiation and tissue remodeling). It counts as cell-based, human. The procedure: as §1, §2
as §3, with “enzymes. In total, the Diversity PLUS panel contains 148 biomarker readouts that capture biological changes that occur within the physiological context of the particular BioMAP system. Specific BioMAP activities have been correlated to in vivo biology, and multiparameter BioMAP profiles have been used to distinguish compounds based on MoA and target selectivity across diverse physiological systems.” for “enzymes.”
as §6

For data set [7], the system named is Venular endothelial cells, peripheral blood mononuclear cells. Nature of the data set: BioMAP Diversity PLUS SAg system (T cell stimulation, Th1 type chronic inflammation). The format is cell-based, human. The following applies: for T cell proliferation: human cell system mimicking T-cell driven chronic inflammation and autoimmune diseases, concentrations ranging from 740 nm to 6.7 μM (FIG. 2); for Significant log10 reduction compared to nontreated controls: T cell proliferation: SAg system. The procedure: as §1, §2
as §3, with “enzymes. In total, the Diversity PLUS panel contains 148 biomarker readouts that capture biological changes that occur within the physiological context of the particular BioMAP system. Specific BioMAP activities have been correlated to in vivo biology, and multiparameter BioMAP profiles have been used to distinguish compounds based on MoA and target selectivity across diverse physiological systems.” for “enzymes.”
as §6

The conditions of data set [8]: white powder; room temperature; cited from earlier work.
Data set [9] relates to Macrophages, venular endothelial cells. Nature of the data set: BioMAP Diversity PLUS lMphg system (Th1 type chronic inflammation, macrophage activation). The format is cell-based, human. Conditions: /Mphg system. The procedure: as §1, §2
as §3, with “enzymes. In total, the Diversity PLUS panel contains 148 biomarker readouts that capture biological changes that occur within the physiological context of the particular BioMAP system. Specific BioMAP activities have been correlated to in vivo biology, and multiparameter BioMAP profiles have been used to distinguish compounds based on MoA and target selectivity across diverse physiological systems.” for “enzymes.”
as §6

Setting [10] is: human cell system mimicking wound healing, remodeling.

Turning to `O=C(O)c1cc(O)c2cccc(O)c2n1` [Xanthurenate], in [1] (20.0 μM), the “Significant log10 reduction compared to nontreated controls: Secreted interleukin 6 (IL-6)” value is listed as −0.13 log10. In addition, in data set [1] (20.0 μM), the “Significant log10 reduction compared to nontreated controls: Secreted tumor necrosis factor alpha (TNFα)” value is on record as −0.19 log10. Further, the “Significant log10 reduction compared to nontreated controls: Secreted prostaglandin E2 (PGE2)” value in [2] (6.7 μM) is on record as −0.16 log10; in data set [2] (20.0 μM), −0.09 log10. For the same compound, the “secretion of prostaglandin E2 (PGE2)” value in [2] was “lowered”. Further, the IL-6 entry in [3] (human cell system mimicking cardiovascular inflammation (FIG. 6)) is “lowered”. Also, in data set [4] (human cell system mimicking wound healing, remodeling, fibrosis and chronic inflammation (FIG. 8)), the “interleukin 8 (IL-8)” value was “inhibitory activity”.
As to `CCCCCCC=CCCCCCCCCC(=O)O` [10-heptadecanoate], the “Significant log10 reduction compared to nontreated controls: Serum amyloid A” value in [3] (CASM3C system, 2.2 μM) is −0.13 log10. Besides, the “Significant log10 reduction compared to nontreated controls: Eotaxin 3 (CCL26)” value was −0.10 log10 in data set [5] (2.2 μM), −0.13 log10 in data set [5] (6.7 μM) and −0.31 log10 in [5] (20.0 μM). In data set [4] (HDF3CGF system, 6.7 μM), the “Significant log10 reduction compared to nontreated controls: Macrophage colony-stimulating factor (M-CSF)” value was −0.1 log10. In addition, the “Significant log10 reduction compared to nontreated controls: Vascular cell adhesion molecule 1 (VCAM-1)” value (from here on “Significant log10 reduction … (VCAM-1)”) in data set [4] (HDF3CGF system, 6.7 μM) was −0.17 log10.
For `CS(=O)(=O)CC[C@H](N)C(=O)O` [Methionine sulfone], the figures for the “Significant log10 reduction compared to nontreated controls: Decorin” value in data set [6] (6.7 μM) and in data set [6] (20.0 μM) were −0.07 log10 and −0.11 log10, respectively. For the same compound, the “Significant log10 reduction compared to nontreated controls: Secreted prostaglandin E2 (PGE2)” value in data set [2] (0.7 μM) was −0.12 log10; in data set [2] (2.2 μM), −0.08 log10. Also, the “secretion of prostaglandin E2 (PGE2)” value in data set [2] is given as “lowered”. For the same compound, the T cell proliferation result in [7] is recorded as “decreased”. For the same compound, the “Significant log10 reduction … (VCAM-1)” value in data set [3] (CASM3C system, 0.7 μM) is −0.10 log10; in data set [3] (CASM3C system, 2.2 μM) it was −0.09 log10. In data set [4] (HDF3CGF system, 6.7 μM), the “Significant log10 reduction compared to nontreated controls: Monocyte chemoattractant protein 1 (MCP-1)” value was −0.24 log10. Also, the decorin result in [4] (setting [10]) is “inhibitory activity”.
As to `N[C@@H](CC(O)C(=O)O)C(=O)O` (stereo partly shown) [4-hydroxyglutamate], the “Significant log10 reduction compared to nontreated controls: Secreted interleukin 17F (IL-17F)” value in data set [1] (0.7 μM) is −0.16 log10. Moreover, the “stability of the pure or purified metabolite” value in [8] is “stable at room temperature”. For the same compound, the “Significant log10 reduction compared to nontreated controls: T cell proliferation” value in [7] (0.7 μM) was −0.08 log10; in [7] (2.2 μM), −0.09 log10; in data set [7] (6.7 μM), −0.18 log10. Further, the T cell proliferation entry in data set [7] is “decreased”. The decorin result in [4] (setting [10]) is “inhibitory activity”.
With `NC(=O)CC[C@H](NC(=O)CC[C@H](N)C(=O)O)C(=O)O` [Gamma-glutamylglutamine], the “Significant log10 reduction compared to nontreated controls: Monocyte chemoattractant protein 1 (MCP-1)” value in [9] (0.7 μM) is −0.18 log10; in [9] (2.2 μM), −0.10 log10. Besides, the “Significant log10 reduction compared to nontreated controls: Interleukin 1 alpha (IL-1α)” value in [9] (20.0 μM) is reported as −0.16 log10. The “Significant log10 reduction compared to nontreated controls: Secreted interleukin 6 (IL-6)” value in [1] (20.0 μM) is −0.13 log10. Further, the “Significant log10 reduction … (VCAM-1)” value in data set [3] (CASM3C system (as aligned in the table), 20.0 μM) was −0.15 log10. Besides, in [3] (CASM3C system, 6.7 μM), the “Significant log10 reduction compared to nontreated controls: Serum amyloid A” value was −0.11 log10. Further, in data set [4] (HDF3CGF system, 20.0 μM), the “Significant log10 reduction compared to nontreated controls: Collagen III” value was −0.10 log10.
